Measurements reported in paper PMC9697930 (International Journal of Molecular Sciences, 2022).

Legend:
ABCG2 mRNA = experiment: Gene induction study (qRT-PCR) in MCF-7 cells; assay type: cell-based, Human; details: 0.5 µM, 24 and 48 h
Experimental: (§1) Gene expression analyses based on quantitative real-time reverse transcription PCR (qRT-PCR) were performed as described previously. MCF-7 cell line (3.8×10^5 cells/well) was seeded in 12-well plates 24 h before induction experiments. […] After 24 and 48 h intervals, samples were collected by using TRI Reagent. Subsequently, total RNA was isolated from the cells using the chloroform/isopropanol method. Reverse transcription of 1 μg RNA to cDNA was conducted with ProtoScript II Reverse Transcriptase using T100 Thermal Cycler (Bio-Rad Laboratories, Hercules, CA, USA) according to the two-step protocol described previously. The expressions of ABCB1, ABCC1, and ABCG2 genes were measured by qRT-PCR using specific TaqMan assays with QuantStudio 6 machine (Life Technologies, Carlsbad, CA, USA). qRT-PCR reactions were run under predefined thermal cycling conditions (95 °C for 10 min, then 40 repeats of a cycle of 95 °C for 15 s and 60 °C for 60 s). GAPDH and B2M were used as house-keeping genes; the fold-changes in target genes’ expressions were determined according to the 2^-ΔΔCt method.

ABCB1 mRNA = experiment: Gene induction study (qRT-PCR) in MCF-7 cells; assay type: cell-based, Human; details: 0.5 µM, 24 and 48 h
Experimental: as §1

ABCC1 mRNA = experiment: Gene induction study (qRT-PCR) in MCF-7 cells; assay type: cell-based, Human; details: 0.5 µM, 24 and 48 h
Experimental: as §1

ABCG2 = details: 12-days exposure; MCF-10A; cited from earlier work
MDCKII-ABCC1 = experiment: MTT proliferation / drug combination assay; assay type: cell-based, Canine; details: Canis lupus familiaris, comparative MTT, 48 h, read-out: antiproliferative IC50
Experimental: (§2) The viability MTT assay was employed in several experimental sets, including induction studies, comparative viability assays, and drug combinations. First, 1.3 × 10^4 (MDCKII sublines), 1.2 × 10^4 (A431 sublines), 1.5 × 10^4 (MCF-7), and 1.0 × 10^4 (primary NSCLC explants) cells were seeded in 96-well plates. After seeding, cells were left to refresh in incubator for 24 h. Secondly, the medium was removed, and the serial dilutions of the drugs or drug combinations were added to the cells. Next to these variants, a medium with 40% DMSO and vehicle-containing media were tested as nonviable and unaffected viability controls, respectively. After an additional 48 h of incubation, the cells were washed with 1 × PBS and then treated with 1 mg/mL MTT solution in Opti-MEM. Subsequently, cells were incubated for 60 min under standard conditions. After MTT treatment, generated formazan crystals were solubilized with DMSO for 10 min. Wavelengths of 570 nm (formazan) and 690 nm (background) were used for absorbance measurements using a microplate reader Infinite 200 Pro NanoQuant (Tecan, Männedorf, Switzerland).
(§3) In vitro cell lines (MDCKII and A431) and primary NSCLC explants were seeded (see densities above) in 96-well plates and incubated for 24 h. […] Combined cells were incubated with the tested compounds for 48 h, and subsequently, MTT assay was performed to assess cell viability as described above. Besides IC50-shift analysis, CompuSyn 3.0.1 software (ComboSyn Inc., Paramus, NJ, USA) was used for the additional analysis of obtained data. This software works with the algorithms of the combination index (CI) method of Chou–Talalay, which is frequently used for the accurate quantification of drug combinations’ outcomes. According to the CI method principle, the combination effects were separated into three categories, including synergistic (CI < 0.9), additive (CI between 0.9–1.1), or antagonistic (CI > 1.1) ones.

MDCKII-parent = experiment: MTT proliferation / drug combination assay; assay type: cell-based, Canine; details: Canis lupus familiaris; MDCKII-par; comparative MTT, 48 h; read-out: antiproliferative IC50
Experimental: as §2, §3

[1] = MTT proliferation / drug combination assay; assay type: cell-based, Canine; details: dog, MDCKII-ABCG2 cells; MDCKII-ABCG2; comparative MTT, 48 h; read-out: antiproliferative IC50
Experimental: as §2, §3

MDCKII-par cells = experiment: Accumulation assay in control parent cells; assay type: cell-based, Canine
Experimental: The conduction of accumulation assays followed the slightly changed protocol described previously. In the study, MDCKII-par, MDCKII-ABCB1, MDCKII-ABCC1, MDCKII-ABCG2, and primary explants were seeded into 12-well plates in variant densities, 22.0 × 10^4, 15.0 × 10^4, 25.0 × 10^4, 22.0 × 10^4, and 15.0 × 10^4 cells/well, respectively. After 24 h incubation, two washing steps with 1 × PBS were applied. […] The cells were then incubated under standard conditions for 30 min. Next steps included placing the plates on ice, washing the cells with ice-cold 1 × PBS two-times, and detaching the cells with the ice-cold 10 × trypsin without phenol red. Following trypsinization, cells were resuspended in 1 × PBS containing 2% FBS. Subsequently, cell suspensions were transferred into the test tubes and kept on ice. The fluorescence in cells was measured immediately after the collection of their suspensions using flow cytometer Sony SA3800 Spectral Cell Analyzer (Sony Biotechnology, San Jose, CA, USA). SA3800 software (Sony Biotechnology, San Jose, CA, USA) was used to evaluate the data.

CYP2B6 = target: T1, CYP2B6 (Homo sapiens, UniProt P20813); experiment: Incubation assay with recombinant CYP (Vivid kit); assay type: biochemical; details: recombinant enzyme, Vivid substrate
T1 construct: purchased
T1 sequence (P20813 whole entry): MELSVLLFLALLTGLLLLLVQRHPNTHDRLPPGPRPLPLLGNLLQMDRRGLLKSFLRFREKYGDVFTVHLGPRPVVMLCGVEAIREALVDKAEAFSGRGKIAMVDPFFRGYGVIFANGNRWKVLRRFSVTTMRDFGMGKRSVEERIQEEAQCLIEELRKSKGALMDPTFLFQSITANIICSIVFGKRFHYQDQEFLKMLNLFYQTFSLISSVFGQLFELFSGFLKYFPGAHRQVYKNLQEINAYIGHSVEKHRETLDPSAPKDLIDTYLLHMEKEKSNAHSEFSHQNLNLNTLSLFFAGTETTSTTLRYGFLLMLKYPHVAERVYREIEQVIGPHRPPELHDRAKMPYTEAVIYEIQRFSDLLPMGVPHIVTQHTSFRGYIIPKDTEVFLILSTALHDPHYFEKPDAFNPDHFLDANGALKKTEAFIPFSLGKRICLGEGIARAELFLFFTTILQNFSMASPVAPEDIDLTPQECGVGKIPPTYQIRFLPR
Experimental: (§4) Possible interactions of examined PARPi with human CYP3A4, CYP2C8, CYP2D6, CYP1A2, CYP2B6, CYP2C9, CYP2C19, and CYP3A5 were evaluated using commercial Vivid CYP450 Screening Kits. […] CYP isoenzymes were mixed with the NADPH-regeneration system, and resulting solutions were added to the wells. After 10 min preincubation, the solution of NADP ^+ and a particular Vivid substrate were added to start the CYP-catalyzed reaction. Fluorescence corresponding to the levels of produced metabolites was detected using the microplate reader Infinite […] (Tecan, Männedorf, Switzerland) in a kinetic mode (1-minute intervals). The data from the 15 min interval were selected to analyze the results.

CYP1A2 = target: T2, CYP1A2 (Homo sapiens, UniProt P05177); experiment: Incubation assay with recombinant CYP (Vivid kit); assay type: biochemical; details: recombinant enzyme, Vivid substrate
T2 construct: purchased
T2 sequence (P05177 whole entry): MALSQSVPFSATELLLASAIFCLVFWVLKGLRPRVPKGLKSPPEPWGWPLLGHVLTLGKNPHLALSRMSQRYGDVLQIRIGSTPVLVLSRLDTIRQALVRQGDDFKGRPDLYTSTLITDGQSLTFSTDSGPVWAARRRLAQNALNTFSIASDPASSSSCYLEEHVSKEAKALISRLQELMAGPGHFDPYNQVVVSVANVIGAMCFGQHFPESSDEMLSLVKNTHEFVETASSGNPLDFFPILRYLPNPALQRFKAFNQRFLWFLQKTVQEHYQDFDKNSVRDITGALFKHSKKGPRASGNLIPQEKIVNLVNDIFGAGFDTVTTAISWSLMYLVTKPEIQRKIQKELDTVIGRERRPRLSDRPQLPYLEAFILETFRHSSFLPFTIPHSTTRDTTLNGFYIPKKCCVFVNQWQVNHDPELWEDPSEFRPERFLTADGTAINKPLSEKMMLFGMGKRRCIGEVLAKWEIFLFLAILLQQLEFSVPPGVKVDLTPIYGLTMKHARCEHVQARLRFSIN
Experimental: as §4

CYP2D6 = target: T3, CYP2D6 (Homo sapiens, UniProt P10635); experiment: Incubation assay with recombinant CYP (Vivid kit); assay type: biochemical; details: recombinant enzyme, Vivid substrate
T3 construct: purchased
T3 sequence (P10635 whole entry): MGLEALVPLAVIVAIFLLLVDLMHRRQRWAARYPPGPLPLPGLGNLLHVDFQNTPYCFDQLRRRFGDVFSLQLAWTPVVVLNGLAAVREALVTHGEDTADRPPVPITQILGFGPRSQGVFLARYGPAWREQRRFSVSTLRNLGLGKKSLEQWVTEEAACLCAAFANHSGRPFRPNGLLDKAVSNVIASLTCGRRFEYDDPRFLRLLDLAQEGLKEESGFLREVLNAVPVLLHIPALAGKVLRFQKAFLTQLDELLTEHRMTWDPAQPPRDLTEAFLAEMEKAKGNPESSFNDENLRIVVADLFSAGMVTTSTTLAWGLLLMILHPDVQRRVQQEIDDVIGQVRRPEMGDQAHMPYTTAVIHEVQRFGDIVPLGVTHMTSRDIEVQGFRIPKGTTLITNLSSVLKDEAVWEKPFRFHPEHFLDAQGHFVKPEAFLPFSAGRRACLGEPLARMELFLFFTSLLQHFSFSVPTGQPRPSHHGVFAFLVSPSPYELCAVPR
Experimental: as §4

CYP2C8 = target: T4, CYP2C8 (Homo sapiens, UniProt P10632); experiment: Incubation assay with recombinant CYP (Vivid kit); assay type: biochemical; details: recombinant enzyme, Vivid substrate
T4 construct: purchased
T4 sequence (P10632 whole entry): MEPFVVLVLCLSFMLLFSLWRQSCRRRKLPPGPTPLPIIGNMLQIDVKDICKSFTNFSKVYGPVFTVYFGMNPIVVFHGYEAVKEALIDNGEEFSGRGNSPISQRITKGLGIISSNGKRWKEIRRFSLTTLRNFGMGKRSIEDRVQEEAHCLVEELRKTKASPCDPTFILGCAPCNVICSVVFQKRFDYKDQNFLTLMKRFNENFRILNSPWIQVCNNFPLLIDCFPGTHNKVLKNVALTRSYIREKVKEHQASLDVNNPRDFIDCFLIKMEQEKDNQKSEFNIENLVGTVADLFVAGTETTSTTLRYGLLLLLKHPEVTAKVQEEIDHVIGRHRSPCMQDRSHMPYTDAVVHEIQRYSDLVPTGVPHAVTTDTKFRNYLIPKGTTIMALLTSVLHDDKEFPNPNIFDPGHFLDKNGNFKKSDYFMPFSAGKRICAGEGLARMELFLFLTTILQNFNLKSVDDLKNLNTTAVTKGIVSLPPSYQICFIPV
Experimental: as §4

MTT proliferation assay = assay type: cell-based, Canine; details: dog, MDCKII-ABCB1 cells, comparative MTT, read-out: antiproliferative IC50
Experimental: as §2

MCF-7 cells = experiment: MTT viability experiment; assay type: cell-based, Human; details: 0.5 µM, 48 h
Experimental: as §2

IC50 (CYP2B6): > 50 µM
IC50 (CYP1A2): > 50 µM
IC50 (CYP2D6): > 50 µM
IC50 (CYP2C8): > 50 µM
SMILES: Cn1ncnc1[C@H]1c2n[nH]c(=O)c3cc(F)cc(c23)N[C@@H]1c1ccc(F)cc1 [talazoparib, Talazoparib]
change of ABCG2 mRNA expression vs vehicle control (ABCG2 mRNA): did not trigger the transporters’ expression increase or decrease by more than 100% or 50%
change of ABCB1 mRNA expression vs vehicle control (ABCB1 mRNA): did not trigger the transporters’ expression increase or decrease by more than 100% or 50%
change of ABCC1 mRNA expression vs vehicle control (ABCC1 mRNA): did not trigger the transporters’ expression increase or decrease by more than 100% or 50%
effect on ABCG2 mRNA (ABCG2): upregulate
effect on ABCG2 protein level (ABCG2): decreased
IC50 (MDCKII-ABCC1): 66 µM
IC50 (MDCKII-parent): 69.4 µM
IC50 at 48 h [1]: 64.5 µM
effect on accumulations of probe substrate drugs (MDCKII-par cells): did not exhibit any significant effects
IC50 at 48 h (MTT proliferation assay): 67.5 µM
toxicity in MTT viability experiment (MCF-7 cells): negligibly toxic
